Data published in ChEMBL document CHEMBL1148252, “Orally bioavailable small molecule ketoamide-based inhibitors of cathepsin K” (Bioorg Med Chem Lett, 2004).
Values after ≈ are worked out from the molar mass of the structure shown.

Key:
[1] = Apparent permeability coefficient (Papp) for apical to basolateral flux was determined in MadinDarby Canine Kidney cells; assay type: ADME, Canis lupus familiaris; settings: dog, MDCK
[2] = Partition coefficient (logP); assay type: physicochemical; settings: octanol/water
[3] = Tested for equilibrium solubility in fasted state-simulated intestinal fluid at pH 6.8; assay type: ADME; settings: fasted state-simulated intestinal fluid (FS-SIF)
[4] = Tested for the total clearance of the compound; assay type: ADME, organism-based; settings: in vivo
[5] = Tested for iv terminal half-life dosed as a solution in male Han Wistar rats; assay type: ADME, organism-based; settings: rat, in vivo
[6] = Oral bioavailability in rat (male Wistar); assay type: ADME, organism-based; settings: in vivo
[7] = Steady state volume of distribution (Vsss) was determined; assay type: ADME, organism-based; settings: in vivo; read-out: Vsss

Papp A→B [1] [×10⁻⁶ cm/s]	logP [2]	solubility thermodynamic [3] [µg/mL]	clearance [4] [mL/min/kg]	half-life [5] [h]	bioavailability [6] [%]	Vd [7] [L/kg]	SMILES
51	–	28 (≈ 71.5 µM)	5.2	1.28	10	0.24	CCCC[C@H](NC(=O)OC(C(C)C)C(C)C)C(=O)C(=O)NCc1ccccn1
5.7	7.3	12 (≈ 29.7 µM)	8.7	–	3.1	1.9	CCCC[C@H](NC(=O)OC(C(C)C)C(C)C)C(=O)C(=O)N[C@H](C)c1ccccc1
–	–	62 (≈ 158 µM)	7.1	4	5.2	0.09	CCCC[C@H](NC(=O)OC(C(C)C)C(C)C)C(=O)C(=O)NCc1ccncc1
–	5.5	32 (≈ 67.1 µM)	24	4.33	10	1.5	CNC(=O)NCCCC[C@H](NC(=O)OC(C(C)C)C(C)C)C(=O)C(=O)N[C@H](C)c1ccccc1

Continued, molecule first:

SMILES	Papp A→B [1] [×10⁻⁶ cm/s]	logP [2]	solubility thermodynamic [3] [µg/mL]	clearance [4] [mL/min/kg]	half-life [5] [h]	bioavailability [6] [%]	Vd [7] [L/kg]
CCCC[C@H](NC(=O)OC(C(C)C)C(C)C)C(=O)C(=O)NCc1ccno1	41	5	63 (≈ 165 µM)	29	0.867	32	1.2
CCCC[C@H](NC(=O)OC(C(C)C)C(C)C)C(=O)C(=O)NCc1nnco1	51	3.4	150 (≈ 392 µM)	33	0.35	16	0.98
CCCC[C@H](NC(=O)OC(C(C)C)C(C)C)C(=O)C(=O)N[C@H]1CCCNC1=O	31	4.4	350 (≈ 880 µM)	44	3.67	20	1.6
CCCC[C@H](NC(=O)OC(C(C)C)C(C)C)C(=O)C(=O)NCc1cncs1	48	5.3	51 (≈ 128 µM)	28	2.5	55	1.3
